Data from ChEMBL document CHEMBL1132875, “Bicyclic pyridones as potent, efficacious and orally bioavailable thrombin inhibitors” (Bioorg Med Chem Lett, 2000).

What was measured:
Prothrombin = Prothrombin (Homo sapiens, UniProt P00734); assay: The compound was tested for its ability to inhibit thrombin.
Serine protease 1 = Serine protease 1 (Homo sapiens, UniProt P07477); assay: The compound was tested for its ability to inhibit trypsin.
[1] = The compound was tested in vitro for its anticoagulant potency (2x APTT) of human plasma; assay type: functional
Rattus norvegicus [2] = assay: Compound was tested in vivo for its antithrombotic efficacy in six rats upon intravenous administration of 3 ug/kg/min dose and activity expressed as number of occlusions; assay type: functional
Rattus norvegicus [3] = assay: Final plasma concentration when 3 ug/kg/min compound administered intravenously in rat; assay type: ADME, organism-based; conditions: in vivo, iv, 0.003 mg/kg
[4] = (§1) Half life was determined after oral administration at 1 mg/kg in dogs; assay type: ADME, organism-based, Canis lupus familiaris; set-up: dose 1 mg/kg, route oral; conditions: dog, in vivo
[5] = Maximum time taken for oral absorption was determined after oral administration at 1 mg/kg in dogs; assay type: ADME, organism-based, Canis lupus familiaris; set-up: dose 1 mg/kg, route oral; conditions: dog, in vivo
[6] = Oral absorption kinetics (AUC) was determined after administration of compound orally at 1 mg/kg in dogs; assay type: ADME, organism-based, Canis lupus familiaris; set-up: dose 1 mg/kg, route oral; conditions: dog, in vivo
[7] = Cmax in dog plasma after 1mg/kg oral dose; assay type: ADME, organism-based, Canis lupus familiaris; set-up: dose 1 mg/kg, route oral
Canis familiaris = assay: as §1; assay type: ADME, organism-based, Canis lupus familiaris; set-up: dose 1 mg/kg, route oral; conditions: dog, in vivo
Rattus norvegicus [8] = assay: Final plasma concentration when 10 ug/kg/min compound administered intravenously in rat; assay type: ADME, organism-based; conditions: in vivo, iv, 0.01 mg/kg
Rattus norvegicus [9] = assay: Compound was tested in vivo for its antithrombotic efficacy in six rats upon intravenous administration of 10 ug/kg/min dose and activity expressed as number of occlusions; assay type: functional
Rattus norvegicus [10] = assay: Compound was tested in vivo for its antithrombotic efficacy in six rats upon intravenous administration of 10 ug/kg/min dose and activity expressed as number of occlusions

Serine protease 1, sequence (P07477 whole entry): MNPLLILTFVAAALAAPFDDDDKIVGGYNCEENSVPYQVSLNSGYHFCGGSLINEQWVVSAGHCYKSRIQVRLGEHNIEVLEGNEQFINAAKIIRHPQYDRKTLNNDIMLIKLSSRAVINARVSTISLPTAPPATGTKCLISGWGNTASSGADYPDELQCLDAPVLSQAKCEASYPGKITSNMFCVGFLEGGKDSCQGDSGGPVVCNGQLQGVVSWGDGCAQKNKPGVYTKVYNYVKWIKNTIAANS

| SMILES | Ki (Prothrombin) | Ki (Serine protease 1) | Concentration doubling APTT [1] | also measured |
| --- | --- | --- | --- | --- |
| CCC[C@H]1Cc2cc(C)n(CC(=O)NCc3ccc(N)nc3C)c(=O)c2NC1=O | 36 nM | 22000 nM | – | – |
| Cc1nc(N)ccc1CNC(=O)Cn1c(C)cc2c(c1=O)NC(=O)[C@H](CC1CC1)C2 | 0.21 nM | 770 nM | 150 nM | Activity (Rattus norvegicus [2]): 1; concentration (Rattus norvegicus [3]): 185 nM |
| Cc1nc(N)ccc1CNC(=O)Cn1c(C)ccc(NS(=O)(=O)Cc2ccccc2)c1=O [L-374087] | – | – | – | T1/2 (Canis familiaris): 2.57 h; AUC [6]: 4.42 µM·h |
| Cc1nc(N)ccc1CNC(=O)Cn1c(C)cc2c(c1=O)NC(=O)CC2 | – | 101000 nM | – | – |
| Cc1nc(N)ccc1CNC(=O)Cn1c(C)cc2c(c1=O)NC(=O)C(CC(C)C)(CC(C)C)C2 | – | – | 390 nM | – |

Now from value to compound, other results behind:

| Ki (Prothrombin) | Ki (Serine protease 1) | SMILES | Concentration doubling APTT [1] | also measured |
| --- | --- | --- | --- | --- |
| 0.33 nM | 510 nM | CCC[C@@H]1Cc2cc(C)n(CC(=O)NCc3ccc(N)nc3C)c(=O)c2NC1=O | 180 nM | – |
| – | 860 nM | Cc1nc(N)ccc1CNC(=O)Cn1c(C)cc2c(c1=O)NC(=O)[C@](C)(CC(C)C)C2 | 160 nM | half-life [4]: 1.5 h; Tmax [5]: 0.5 h; AUC [6]: 2.97 µM·h; Cmax [7]: 1370 nM |
| – | 420 nM | Cc1nc(N)ccc1CNC(=O)Cn1c(C)cc2c(c1=O)NC(=O)[C@H](CC1CCC1)C2 | 190 nM | concentration (Rattus norvegicus [8]): 596 nM; Activity (Rattus norvegicus [9]): 0 |
| 1.6 nM | 4200 nM | CC[C@@H]1Cc2cc(C)n(CC(=O)NCc3ccc(N)nc3C)c(=O)c2NC1=O | 310 nM | – |
| – | 12700 nM | Cc1nc(N)ccc1CNC(=O)Cn1c(C)cc2c(c1=O)NC(=O)[C@H](Cc1ccccc1)C2 | 200 nM | – |
| 0.4 nM | 580 nM | Cc1nc(N)ccc1CNC(=O)Cn1c(C)cc2c(c1=O)NC(=O)[C@H](CC(C)C)C2 | 220 nM | concentration (Rattus norvegicus [8]): 255 nM; half-life [4]: 2.35 h; Tmax [5]: 1.17 h; Activity (Rattus norvegicus [10]): 0; AUC [6]: 0.75 µM·h; Cmax [7]: 180 nM |
